Source: ChEMBL document CHEMBL1130872, “Neuronorm is a potent and water soluble neurokinin A receptor antagonist” (Bioorg Med Chem Lett, 1998)

How the values were obtained:
[1] = biological target: T1, Substance-K receptor (Cavia porcellus) (UniProt Q64077); experiment: Antagonist Activity of compound (100 nM) at Tachykinin receptor 2 at guinea pig trachea in the presence of P-Ala8-NKA[4-IO] as agonist; assay type: functional
T1 sequence (whole entry): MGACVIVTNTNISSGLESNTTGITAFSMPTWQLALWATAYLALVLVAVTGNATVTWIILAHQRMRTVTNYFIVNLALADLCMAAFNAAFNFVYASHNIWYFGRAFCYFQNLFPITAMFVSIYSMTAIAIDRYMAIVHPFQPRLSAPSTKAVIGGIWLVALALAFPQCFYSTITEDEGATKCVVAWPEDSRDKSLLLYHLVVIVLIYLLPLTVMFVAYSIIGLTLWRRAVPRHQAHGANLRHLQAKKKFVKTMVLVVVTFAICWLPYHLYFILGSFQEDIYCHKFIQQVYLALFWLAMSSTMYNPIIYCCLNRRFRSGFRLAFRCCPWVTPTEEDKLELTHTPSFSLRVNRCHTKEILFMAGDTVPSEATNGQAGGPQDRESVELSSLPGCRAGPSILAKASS

Substance-K receptor = biological target: T2, Substance-K receptor (Cavia porcellus, UniProt Q64077); experiment: Compound was evaluated for antagonistic activity towards Tachykinin receptor 2 at guinea pig trachea; assay type: functional, tissue-based; conditions: read-out: pA2 (converted)
T2 sequence (Q64077 whole entry): T1 sequence (whole entry)

[2] = biological target: T1, Substance-K receptor (Cavia porcellus); experiment: Antagonist Activity of compound (10 nM) at Tachykinin receptor 2 at guinea pig trachea in the presence of P-Ala8-NKA[4-IO] as agonist; assay type: functional
[3] = biological target: T1, Substance-K receptor (Cavia porcellus); experiment: Antagonist Activity of compound (30 nM) at Tachykinin receptor 2 at guinea pig trachea in the presence of P-Ala8-NKA[4-IO] as agonist; assay type: functional

CSCC[C@@H]1NC(=O)C(CC(C)C)NC(=O)C2CNC(=O)C[C@H](NC1=O)C(=O)N[C@@H](Cc1c[nH]c3ccccc13)C(=O)NC(Cc1ccccc1)C(=O)N2 (single isomer, unassigned)
Emax [1]: 98%
Kb (Substance-K receptor): 23.4 nM
Emax [2]: 93%
Emax [3]: 90%
